Results from patent EP4813979A1, “COMPOUND FOR EGFR PROTEIN DEGRADATION AND USE THEREOF” (TYK Medicines, Inc., priority 2023, dated 2025).

Legend:
[1] = Pharmacokinetic tests in male SD rats; format: in vivo; conditions: oral gavage (po), 10 mg/kg, plasma
Procedure: Three healthy adult male SD rats, 6-8 weeks old, weighing 200-300 grams.
EDTA-Na2 anticoagulant, weighed 11.2 g EDTA-Na2 and placed it in a reagent bottle. Added 100 mL physiological saline and shaked to dissolve completely. After preparation, dispensed into 1.5 mL centrifuge tubes, each containing approximately 20 µL, for whole blood sample collection.
Accurately weighed approximately 10 mg the sample to be tested, added 10% of the converted total volume of DMSO to dissolve it, and then slowly added 90% of the total volume of 0.5% MC solvent while stirring. Sonicated and vortex to mix thoroughly to obtain a solution of the preparation that is considered to be homogeneous, with a concentration of 1 mg/mL. Prepared fresh immediately before use.
Piped 0.2 mL the sample into a 1.5 mL centrifuge tube and store at -80°C for analysis of the concentration of the drug solution.
Animals were housed in rat cages and fasted for at least 10 hours starting the day before the experiment, but water was allowed. On the day of the experiment, each animal was weighed and marked on its tail. Blank blood samples were collected before drug administration. Blood was collected via tail vein.
• Route of administration: Oral gavage (po); • Dosage concentration: 1 mg/ml; • Dosage: 10 mg/kg; • Dosage volume: 10 mL/kg; • Procedure: Hold the rat upright with your left hand wearing a bite-proof glove, insert the gavage needle into the throat through the mouth, and insert the needle when feeling no obvious resistance. Then inject the drug into the stomach.
Whole blood (0.1-0.2 ml) was collected from test animals at 0.5 h, 1 h, 2 h, 4 h, 6 h, 8 h, 12 h, and 24 h after drug administration. The samples were placed in EDTA-Na 2 anticoagulant tubes, inverted 3-4 times to mix, and centrifuged at 4°C, 2000 g for 5 min to separate the supernatant plasma. The plasma was promptly transferred to -80°C for storage until analysis. Blood was collected via tail vein.
A quantitative detection method for the analyte was established using Shimadzu liquid chromatography and Triple Quad™ 6500+AB mass spectrometry. The concentration of the parent drug in plasma was analyzed. The analytical results were controlled for variation using quality control samples, with the accuracy of the quality control samples expected to be between 80% and 120%.
The main pharmacokinetic parameters were calculated using a non-compartmental model in Winnonlin Phoenix software. These parameters included the area under the curve (AUC(0-t) and AUC(0-∞)), elimination half-life (T1/2), maximum plasma concentration (Cmax ), and time to reach maximum plasma concentration (Tmax).The results are shown in Table 3.

[2] = system: Baf3-19del- T790M -C797S (Baf3-DTC); test: Cell anti-proliferation experiment (CTG); format: cell-based; conditions: 72 h
Text: (§1) H1975 has an EGFR: T790M/L858R double mutation, PC-9 has an EGFR exon 19 deletion, and HCC827 has an exon 19 deletion mutation. Baf3-19del- T790M -C797S (Baf3-DTC) is a stable Ba/F3 clone expressing exogenous EGFR gene bearing T790M, C797S, and […] triple amino acid mutations, purchased from KYinno. Baf3-L858R-T790M - C797S (Baf3-LTC) is a stable Ba/F3 clone expressing exogenous EGFR gene bearing […], T790M, and C797S triple mutations, purchased from KYinno. A549 is a wild-type EGFR, purchased from Nanjing Kebai Biotechnology. A431 is a wild-type EGFR, purchased from Shanghai Xinyu Biotechnology. CellCounting-Lite2.0, Trypsin EDTA, 37°C CO2 incubator, cell counter, EnVision Serial No. 1050454.
(§2) • A) Digested logarithmic phase cells with Trypsin EDTA, added culture medium to stop the reaction, and mixing well with a pipette to prepare a cell suspension. • B) Used Vi-cell to determine cell concentration, and prepared a suspension of 15,000-25,000 cells per milliliter according to the experimental purpose and cell characteristics. • C) After prepared the cell suspension, mixed it gently and added 100 µL to each well, so that the cell density to be tested is 1500-2500 per well.
(§3) • A) Weighed approximately 2 mg the compound and calculated the required volume of DMSO according to the formula: Compound mass (mg) * Compound purity (%) / Compound molecular weight * 1000. • B) Placed the inoculated cell culture plate into an incubator and incubated for about 24 hours. Then added compounds of varying concentrations. • C) Diluted the 10mM compound stock solution to […] with culture medium, and added the […] compound solution to the second column of the deep well plate in sequence, and added […] culture medium containing 0.5% DMSO to the third to eleventh columns. • D) Gradient dilution: Taked 125 µL solution from the second column and added it to the third column, mix well; then taked 125 µL solution from the third column and added it to the fourth column, repeated this operation until the tenth column. • E) Used a multichannel pipette, aspirated 25 µL the compound from the deep-well plate and added it to a 96-well culture plate. Repeated this process three times for each compound on the 96-well plate. This will ultimately create a concentration gradient of up to 10,000 nM at a 1:4 ratio on the 96-well plate.
(§4) • A) The effects of the compound were observed under an inverted microscope after the 96-well plate was incubated in an incubator for 72 hours. • B) Added 25 µL CTG solution to each well, placed on a shaker for 10 minutes, and read the […] of each well.
(§5) Calculate the % Cell Viability using the following formula: %Cell Viability = 100% × (Lum_Sample−Lum_LC)/(Lum_HC−Lum_LC) [formula] • Lum_HC: Cell readings from the 0.1% DMSO control group • Lum_Sample: Cell readings with added compound • Lum_LC: Blank culture medium reading
(§6) The IC50 value was obtained by curve fitting using GraphPad Prism 8 software.

[3] = system: A549; test: Cell anti-proliferation experiment (CTG); format: cell-based; conditions: Homo sapiens, A549, 72 h, A549 (wild-type EGFR)
Text: as §1, §2, §3, §4, §5, §6

[4] = system: HCC827; test: Cell anti-proliferation experiment (CTG); format: cell-based; conditions: Homo sapiens, HCC827, 72 h, HCC827 (exon 19 deletion)
Text: as §1, §2, §3, §4, §5, §6

[5] = system: H1975; test: Cell anti-proliferation experiment (CTG); format: cell-based; conditions: Homo sapiens, NCI-H1975, 72 h, H1975 (EGFR T790M/L858R)
Text: as §1, §2, §3, §4, §5, §6

[6] = system: PC-9; test: Cell anti-proliferation experiment (CTG); format: cell-based; conditions: Homo sapiens, PC-9, 72 h, PC-9 (EGFR exon 19 deletion)
Text: as §1, §2, §3, §4, §5, §6

[7] = system: Baf3-L858R-T790M - C797S (Baf3-LTC); test: Cell anti-proliferation experiment (CTG); format: cell-based; conditions: 72 h
Text: as §1, §2, §3, §4, §5, §6

[8] = system: A431; test: Cell anti-proliferation experiment (CTG); format: cell-based; conditions: Homo sapiens, A-431, 72 h, A431 (wild-type EGFR)
Text: as §1, §2, §3, §4, §5, §6

| SMILES | HL [1] [h] | AUC(0-inf) ([1]; rat) [ng·h/mL] | AUC(0-t) ([1]; rat) [ng·h/mL] | Cmax ([1]; rat) [ng/mL] | MRT last ([1]; rat) [h] | Tmax ([1]; rat) [h] | IC50 ([2]; class symbol) [nM] | IC50 ([3]; class symbol) [nM] | IC50 ([4]; class symbol) [nM] | IC50 ([5]; class symbol) [nM] | IC50 ([6]; class symbol) [nM] | IC50 ([7]; class symbol) [nM] | IC50 ([8]; class symbol) [nM] | IC50 ([2]; number after the class symbol) [nM] | IC50 ([3]; number after the class symbol) [nM] | IC50 ([4]; number after the class symbol) [nM] | IC50 ([5]; number after the class symbol) [nM] | IC50 ([6]; number after the class symbol) [nM] | IC50 ([7]; number after the class symbol) [nM] | IC50 ([8]; number after the class symbol) [nM] |
| --- | --- | --- | --- | --- | --- | --- | --- | --- | --- | --- | --- | --- | --- | --- | --- | --- | --- | --- | --- | --- |
| CCc1cc(Nc2ncc(Cl)c(Nc3ccccc3P(C)(C)=O)n2)c(OC)cc1N1CC2(CCN(C(=O)CN3CCC(c4cc5c(cc4F)c(N4CCC(=O)NC4=O)nn5C)CC3)CC2)C1 [TC-093] | 3.43 | 4930 | 5030 | 665 | 5.98 | 4 | 10 to 100 | > 1000 | 10 to 100 | 10 to 100 | 100 to 1000 | 10 to 100 | > 1000 |  |  |  |  |  |  |  |
| COc1cc(N2CCN(C(=O)CN3CCC(c4cc5c(cc4F)c(N4CCC(=O)NC4=O)nn5C)C(F)(F)C3)CC2)c(Cl)cc1Nc1ncc(Br)c(Nc2ccccc2P(C)(C)=O)n1 (centres unmarked) [TC-138] |  |  |  |  |  |  | < 10 | > 1000 | 100 to 1000 | 10 to 100 | 100 to 1000 | < 10 | > 1000 |  |  |  |  |  |  |  |
| CCc1cc(Nc2ncc(Br)c(Nc3ccccc3P(C)(C)=O)n2)c(OC)cc1N1CCN(C(=O)CN2CCC(c3cc4c(cc3F)c(N3CCC(=O)NC3=O)nn4-c3ccccc3)C(F)(F)C2)CC1 (centres unmarked) [TC-150] |  |  |  |  |  |  | 10 to 100 | > 1000 | 100 to 1000 | 100 to 1000 | > 1000 | 10 to 100 | > 1000 |  |  |  |  |  |  |  |
| COc1cc(N2CCN(C(=O)CN3CCC(c4cc5c(cc4F)c(N4CCC(=O)NC4=O)nn5C)C(F)(F)C3)CC2)ccc1Nc1ncc(Cl)c(Nc2ccccc2P(C)(C)=O)n1 (centres unmarked) [TC-211] |  |  |  |  |  |  | 10 to 100 | > 1000 | 100 to 1000 | 100 to 1000 | 100 to 1000 | 10 to 100 | > 1000 |  |  |  |  |  |  |  |
| CCc1cc(Nc2ncc(Cl)c(Nc3ccccc3P(C)(C)=O)n2)c(OC)cc1N1CCN(C(=O)CN2CCC(c3ccc4c(N5CCC(=O)NC5=O)nn(C)c4c3)C(F)(F)C2)CC1 (centres unmarked) [TC-215] |  |  |  |  |  |  | < 10 | 100 to 1000 | 100 to 1000 | 100 to 1000 | 100 to 1000 | < 10 | > 1000 | 5.6 | 326 | 227 | 164 | 647 | 5.3 | 1070 |
| COc1cc(N2CCN(C(=O)CN3CCC(c4cc5c(cc4F)c(N4CCC(=O)NC4=O)nn5C)C(F)(F)C3)CC2)c(-c2cnn(C)c2)cc1Nc1ncc(Br)c(Nc2ccccc2P(C)(C)=O)n1 (centres unmarked) [TC-224] |  |  |  |  |  |  | < 10 | 100 to 1000 | 10 to 100 | 10 to 100 | 100 to 1000 | < 10 | 100 to 1000 |  |  |  |  |  |  |  |
| CCc1cc(Nc2ncc(Cl)c(Nc3ccccc3P(C)(C)=O)n2)c(OC)cc1N1CCC2(CC1)CN(C(=O)CN1CCC(c3cc4c(cc3F)c(N3CCC(=O)NC3=O)nn4C)C(F)(F)C1)C2 (centres unmarked) [TC-225] |  |  |  |  |  |  | 10 to 100 | 100 to 1000 | 100 to 1000 | 100 to 1000 | 100 to 1000 | 10 to 100 | > 1000 | 13.5 | 961 | 576 | 289 | 432 | 16.7 | 1610 |
| CCc1cc(Nc2ncc(Br)c(Nc3ccccc3P(C)(C)=O)n2)c(OC)cc1N1CCC2(CC1)CN(C(=O)CN1CCC(c3cc4c(cc3F)c(N3CCC(=O)NC3=O)nn4C)C(F)(F)C1)C2 (centres unmarked) [TC-226] |  |  |  |  |  |  | < 10 | 100 to 1000 | 100 to 1000 | 100 to 1000 | 100 to 1000 | < 10 | > 1000 |  |  |  |  |  |  |  |
| CCc1cc(Nc2ncc(Br)c(Nc3ccc(OC4CC4)cc3P(C)(C)=O)n2)c(OC)cc1N1CC2(CCN(C(=O)CN3CCC(c4cc5c(cc4F)c(N4CCC(=O)NC4=O)nn5C)C(F)(F)C3)CC2)C1 (centres unmarked) [TC-232] |  |  |  |  |  |  | < 10 | > 1000 | 10 to 100 | 10 to 100 | 100 to 1000 | < 10 | > 1000 |  |  |  |  |  |  |  |
